Data set [1] relates to HCV replicon H/FL-Neo, genotype 1a full length construct, in Huh7 cells. In words: Secondary HCV replicon cell assay genotype 1a, antiviral activity. It is filed as cell-based. As to conditions: Hepatitis C virus; for EC50: Huh-7, 2-fold depression of intracellular HCV RNA; for EC90: Huh-7, 10-fold depression of intracellular HCV RNA. On the procedure:
(§1) Antiviral activity of test compounds was assessed in a 3-day assay using the stably-expressing HCV replicon cell line, AVA5 (sub-genomic CONI, genotype 1b) [Korba, B. E. et al. Antiviral Res. 77, 56-63 (2008); Blight et al., Science 290, 1972-1974 (2000)] maintained as sub-confluent cultures on 96-well plates as previously described [Okuse et al., Antiviral Research 65, 23-34 (2005)]. Antiviral activity was determined by blot hybridization analysis of intracellular HCV RNA (normalized to the level of cellular B-actin RNA in each culture sample) and cytotoxicity was assessed by neutral red dye uptake after 3 days of treatment. Additional studies were performed using Huh7 cells containing another HCV replicon, H/FL-Neo, a genotype la full length construct [Blight et al., J. Virol. 77, 3181-3190 (2003)]. For studies involving human serum, standard culture medium (which contains 10% fetal bovine serum) and assay conditions were maintained.
(§2) EC50, EC90 and CC50 values (±standard deviations [S.D.]) were calculated by linear regression analysis using data combined from all treated cultures (Korba, B. E. et al. Antiviral Res. 77, 56-63 (2008)). […] Selectivity index (S.I.) was calculated as CC50/EC90 for HBV assays and CC50/EC50 for HCV assays.

A short description of data set [2]: Secondary HCV replicon cell assay genotype 1a, cytotoxicity (neutral red dye uptake). The class given is cell-based. As to conditions: human. (In general: Replicon systems follow genome replication, usually without infectious particles.)
Description: (§3) Antiviral activity of test compounds was assessed in a 3-day assay using the stably-expressing HCV replicon cell line, AVA5 (sub-genomic CONI, genotype 1b) [Korba, B. E. et al. Antiviral Res. 77, 56-63 (2008); Blight et al., Science 290, 1972-1974 (2000)] maintained as sub-confluent cultures on 96-well plates as previously described [Okuse et al., Antiviral Research 65, 23-34 (2005)]. Antiviral activity was determined by blot hybridization analysis of intracellular HCV RNA (normalized to the level of cellular B-actin RNA in each culture sample) and cytotoxicity was assessed by neutral red dye uptake after 3 days of treatment. Additional studies were performed using Huh7 cells containing another HCV replicon, H/FL-Neo, a genotype la full length construct [Blight et al., J. Virol. […] For studies involving human serum, standard culture medium (which contains 10% fetal bovine serum) and assay conditions were maintained.
Data set [3] is described as follows: Secondary HCV replicon cell assay genotype 1b, cytotoxicity (neutral red dye uptake). It is filed as cell-based. Conditions: human, AVA5 HCV replicon cells (sub-genomic CON1).
Description: as §3
Data set [4] can be described thus: Primary HCV replicon cell assay, cytotoxicity (neutral red dye uptake). The class given is cell-based. As to conditions: human, AVA5 HCV replicon cells (sub-genomic CON1, genotype 1b), 3 days of treatment.
Description: as §3
Data set [5] relates to HCV replicon cell line, AVA5 (sub-genomic CONI, genotype 1b). In words: Primary HCV replicon cell assay, antiviral activity (intracellular HCV RNA, blot hybridization). It is filed as cell-based. Conditions: Hepatitis C virus, Ava5, 72 h, 3-day assay; for EC50: 2-fold depression of intracellular HCV RNA; for EC90: 10-fold depression of intracellular HCV RNA. On the procedure: as §1, §2

The nature of data set [6]: Cytotoxicity in 2.2.15 cells (neutral red dye uptake). The class given is cell-based. Conditions: human, nine daily doses. On the procedure: Briefly, confluent cultures of 2.2.15 cells were maintained on 96-well flat-bottomed tissue culture plates (confluence in this culture system is required for active, high levels of HBV replication equivalent to that observed in chronically-infected individuals. Cultures were treated with nine consecutive daily doses of the test compounds. HBV DNA levels were assessed by quantitative blot hybridization 24 hr. after the last treatment. Cytotoxicity was assessed by uptake of neutral red dye 24 hr. following the last treatment.

Data set [7] deals with HBV virion in 2.2.15 cells. In words: HBV antiviral assay in 2.2.15 cells, virion (VIR) HBV DNA. The class given is cell-based. As to conditions: Hepatitis B virus, HBV virion DNA, 2.2.15 cells, nine daily doses.
Description: HBV antiviral assays were conducted as previously described [Korba, B. E. et al. Antiviral Res. 77, 56-63 (2008);].
The test system of data set [8] is HCV replicon cell line, AVA5 (sub-genomic CONI, genotype 1b). In words: Secondary HCV replicon cell assay genotype 1b, antiviral activity. Conditions: Hepatitis C virus; for EC50: 2-fold depression of intracellular HCV RNA; for EC90: 10-fold depression of intracellular HCV RNA. The class given is cell-based. The procedure: as §1, §2

Consider four compounds from patent publication US20120108592A1, “PHARMACEUTICAL COMPOSITIONS AND METHODS OF USE OF SALICYLANILIDES FOR TREATMENT OF HEPATITIS VIRUSES” (priority 2010, published 2012).

By EC50 is commonly meant the concentration at which the effect is half-maximal. By EC90 is commonly meant the concentration at which the effect reaches the 90% level. For orientation: CC50 means the concentration that lowers cell viability or growth by half. Low values mean greater toxicity to the cells, high ones lower toxicity to the cells. By melting point is commonly meant the temperature, or range, at which the solid turns liquid.

Turning to `O=C(Nc1cc(C(F)(F)F)ccc1Cl)c1ccccc1O` [Compound 41, N-(2-chloro-5-(trifluoromethyl)phenyl)-2-hydroxybenzamide], the EC50 in data set [1] turned out to be 55 nM; in data set [5] it was 5 nM; in [7] (read-out: EC50 (VIR)), 3700 nM; in [8] it was 45 nM. Moreover, the EC90 was 244 nM in data set [1], 32 nM in data set [5], 13000 nM in [7] (read-out: EC90 (VIR)) and 177 nM in data set [8]. Besides, the cytotoxic concentration (CC50) at 3 days in data set [2] is 680 nM; in data set [3], 790 nM; in [4] it was 330 nM. In addition, the CC50 at 9 days in [6] is greater than 100000 nM.

For the compound `O=C(Nc1ccc([N+](=O)[O-])cc1Cl)c1cc(Cl)ccc1O` [Compound 6, 5-chloro-N-(2-chloro-4-nitrophenyl)-2-hydroxybenzamide], the EC50 was 110 nM in data set [1], 310 nM in data set [5] and 100 nM in data set [8]. The EC90 in data set [1] was 820 nM; in data set [5] it was 1200 nM; in data set [8], 610 nM. Further, the CC50 at 3 days in data set [2] was found to be 790 nM; in data set [3] it was 640 nM; in data set [4], 11000 nM.

The compound `CC(=O)Oc1ccccc1C(=O)Nc1cc(C(F)(F)F)cc(C(F)(F)F)c1` [Compound 34, 2-(3,5-bis(trifluoromethyl)phenylcarbamoyl)phenyl acetate] showed a melting point of 118 to 125 °C. In [1], this compound registered an EC50 of 790 nM and an EC90 of 4700 nM. This compound also gave a CC50 at 3 days in data set [2] of 7800 nM. The compound also had a CC50 at 3 days in [3] of 9500 nM. Besides, the CC50 at 3 days in data set [4] came to 4300 nM. Besides, in data set [5], a half-maximal response (EC50) required 440 nM and the EC90 worked out at 1700 nM. In [8], this compound gave an EC50 of 910 nM and an EC90 of 3700 nM.

Consider `CC(=O)Oc1ccc(Cl)cc1C(=O)Nc1ccc([N+](=O)[O-])cc1Cl` [Compound 25, 4-chloro-2-(2-chloro-4-nitrophenylcarbamoyl)phenyl acetate], for which the EC50 in data set [1] was determined as 100 nM; in data set [5], 130 nM; in data set [8], 78 nM. In addition, the EC90 in data set [1] came to 460 nM; in [5] it was 820 nM; in data set [8] it was 310 nM. For the same compound, the CC50 at 3 days stood at 4300 nM in [2], 3400 nM in data set [3] and 5800 nM in data set [4].
